The assay addresses T1, human wildtype CFTR (Homo sapiens, UniProt P13569).
T1 construct: expressed in transfected cells; host or cells: Fischer rat thyroid (FRT) cells
The assay is described as follows: Fluorescence platereader assay of CFTR-mediated iodide influx (YFP quenching) in FRT cells. The format is cell-based. The note with it: FRT, Table 2, screening; for inhibition at 5 µM: read-out: % Inhibition at 5 μM; for inhibition at 25 µM: read-out: % Inhibition at 25 μM. The procedure, abridged: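 Fischer rat thyroid cells co-expressing human wildtype CFTR and the YFP-H148Q/1152L halide sensor were seeded at 20,000 cells per well in 96-well black-walled plates and assayed 48 h later at confluence. After PBS washes and a 15 min incubation, CFTR was maximally activated with an agonist mixture. Fluorescence was recorded for 2 s before and 10 s after adding 160 μL iodide-substituted PBS, and iodide influx rates came from non-linear regression.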

T1 sequence (P13569 whole entry): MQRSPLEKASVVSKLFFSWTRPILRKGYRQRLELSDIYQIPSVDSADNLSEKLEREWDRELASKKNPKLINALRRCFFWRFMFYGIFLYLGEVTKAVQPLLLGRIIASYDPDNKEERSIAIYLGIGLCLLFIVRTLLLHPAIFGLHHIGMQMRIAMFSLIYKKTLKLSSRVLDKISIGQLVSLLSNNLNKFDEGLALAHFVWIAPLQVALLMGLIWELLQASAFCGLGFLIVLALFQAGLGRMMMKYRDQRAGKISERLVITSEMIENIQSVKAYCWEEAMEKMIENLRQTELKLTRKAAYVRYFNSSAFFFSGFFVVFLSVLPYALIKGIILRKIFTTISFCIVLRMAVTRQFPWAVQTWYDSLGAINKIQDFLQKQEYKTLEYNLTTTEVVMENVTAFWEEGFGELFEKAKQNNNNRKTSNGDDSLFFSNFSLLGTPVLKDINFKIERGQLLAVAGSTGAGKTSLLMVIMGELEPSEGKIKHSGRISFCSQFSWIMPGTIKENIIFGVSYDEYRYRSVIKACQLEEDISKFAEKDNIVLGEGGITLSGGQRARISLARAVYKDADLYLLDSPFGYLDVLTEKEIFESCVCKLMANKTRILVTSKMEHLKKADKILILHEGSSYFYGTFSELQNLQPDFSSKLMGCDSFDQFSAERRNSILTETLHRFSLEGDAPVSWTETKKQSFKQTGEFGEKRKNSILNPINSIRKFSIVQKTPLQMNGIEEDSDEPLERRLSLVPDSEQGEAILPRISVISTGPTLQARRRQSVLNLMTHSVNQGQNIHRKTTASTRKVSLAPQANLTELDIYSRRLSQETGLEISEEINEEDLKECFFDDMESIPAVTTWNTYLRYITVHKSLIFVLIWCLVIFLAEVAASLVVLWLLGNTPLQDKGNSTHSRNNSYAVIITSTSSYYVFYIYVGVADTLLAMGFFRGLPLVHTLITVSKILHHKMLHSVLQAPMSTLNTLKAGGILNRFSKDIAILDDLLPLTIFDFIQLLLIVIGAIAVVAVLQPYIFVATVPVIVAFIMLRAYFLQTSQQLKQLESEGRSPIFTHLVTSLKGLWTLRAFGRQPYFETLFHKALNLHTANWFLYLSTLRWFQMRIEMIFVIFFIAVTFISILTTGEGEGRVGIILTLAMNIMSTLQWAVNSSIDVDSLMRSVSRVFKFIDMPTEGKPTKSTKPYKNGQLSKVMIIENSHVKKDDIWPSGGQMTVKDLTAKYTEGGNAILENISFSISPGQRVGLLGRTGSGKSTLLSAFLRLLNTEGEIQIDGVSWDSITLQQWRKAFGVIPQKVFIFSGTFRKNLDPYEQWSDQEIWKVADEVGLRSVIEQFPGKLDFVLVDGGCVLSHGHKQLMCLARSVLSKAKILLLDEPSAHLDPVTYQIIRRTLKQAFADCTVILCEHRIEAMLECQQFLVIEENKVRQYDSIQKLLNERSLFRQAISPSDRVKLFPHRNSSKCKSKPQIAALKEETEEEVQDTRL

Consider `COc1cc(C2Nc3ccccc3-n3c(-c4ccccc4C)c4c(=O)n(C)c(=O)n(C)c4c32)ccc1O` (centres unmarked) [PPQ-227, 7,9-Dimethyl-11-(2-methylphenyl)-6-(3-methoxy-4-hydroxyphenyl)-5,6-dihydro-pyrimido[4′,5′-3,4]pyrrolo[1,2-a]quinoxaline-8,10-(7H,9H)-dione], for which the inhibition at 5 µM turned out to be 10% and the inhibition at 25 µM stood at 78%.

Turning to `Cc1cccc(-c2c3c(=O)n(C)c(=O)n(C)c3c3n2-c2ccccc2NC3c2cccc(O)c2)c1` (centres unmarked) [PPQ-228, 7,9-Dimethyl-11-(3-methylphenyl)-6-(3-hydroxyphenyl)-5,6-dihydro-pyrimido[4′,5′-3,4]pyrrolo[1,2-a]quinoxaline-8,10-(7H,9H)-dione], the inhibition at 5 µM was determined as 30% and the inhibition at 25 µM worked out at 83%.

Consider `Cc1ccccc1-c1c2c(=O)n(C)c(=O)n(C)c2c2n1-c1ccccc1NC2c1cccc(F)c1` (centres unmarked) [PPQ-229, 7,9-Dimethyl-11-(2-methylphenyl)-6-(3-fluorophenyl)-5,6-dihydro-pyrimido[4′,5′-3,4]pyrrolo[1,2-a]quinoxaline-8,10-(7H,9H)-dione], for which the inhibition at 5 µM was 57% and the inhibition at 25 µM stood at 90%.

Regarding `Cn1c(=O)c2c(-c3ccccc3F)n3c(c2n(C)c1=O)C(c1cccc(F)c1)Nc1ccccc1-3` (centres unmarked) [PPQ-230, 7,9-Dimethyl-11-(2-fluorophenyl)-6-(3-fluorophenyl)-5,6-dihydro-pyrimido[4′,5′-3,4]pyrrolo[1,2-a]quinoxaline-8,10-(7H,9H)-dione], the inhibition at 5 µM was found to be 51% and the inhibition at 25 µM was determined as 87%.

For the compound `CCOc1ccccc1C1Nc2ccccc2-n2c(-c3cccc(C)c3)c3c(=O)n(C)c(=O)n(C)c3c21` (centres unmarked) [PPQ-231, 7,9-Dimethyl-11-(3-methylphenyl)-6-(2-ethoxyphenyl)-5,6-dihydro-pyrimido[4′,5′-3,4]pyrrolo[1,2-a]quinoxaline-8,10-(7H,9H)-dione], the inhibition at 5 µM was less than 10% and the inhibition at 25 µM was 87%.

Regarding `Cc1cccc(C2Nc3ccccc3-n3c(-c4ccccc4)c4c(=O)n(C)c(=O)n(C)c4c32)c1` (centres unmarked) [PPQ-232, 7,9-Dimethyl-11-phenyl-6-(3-methylphenyl)-5,6-dihydro-pyrimido[4′,5′-3,4]pyrrolo[1,2-a]quinoxaline-8,10-(7H,9H)-dione], the inhibition at 5 µM is 67% and the inhibition at 25 µM came out at 67%.

For the compound `Cn1c(=O)c2c(-c3ccccc3F)n3c(c2n(C)c1=O)C(c1ccc(F)cc1)Nc1ccccc1-3` (centres unmarked) [PPQ-233, 7,9-Dimethyl-11-(2-fluorophenyl)-6-(4-fluorophenyl)-5,6-dihydro-pyrimido[4′,5′-3,4]pyrrolo[1,2-a]quinoxaline-8,10-(7H,9H)-dione], the inhibition at 5 µM was found to be 28% and the inhibition at 25 µM was determined as 82%.

Take `Cc1ccccc1-c1c2c(=O)n(C)c(=O)n(C)c2c2n1-c1ccccc1NC2c1ccccc1F` (centres unmarked) [PPQ-234, 7,9-Dimethyl-11-(2-methylphenyl)-6-(2-fluorophenyl)-5,6-dihydro-pyrimido[4′,5′-3,4]pyrrolo[1,2-a]quinoxaline-8,10-(7H,9H)-dione]: the inhibition at 5 µM stood at 53% and the inhibition at 25 µM stood at 81%.

`Cc1cc2c(cc1C)-n1c(-c3ccccc3)c3c(=O)n(C)c(=O)n(C)c3c1C(c1ccc(O)cc1O)N2` (centres unmarked) [PPQ-235, 2,3,7,9-Tetramethyl-11-phenyl-6-(2,4-dihydroxyphenyl)-5,6-dihydro-pyrimido[4′,5′-3,4]pyrrolo[1,2-a]quinoxaline-8,10-(7H,9H)-dione]: the inhibition at 5 µM amounted to 12% and the inhibition at 25 µM was 80%.

Take `Cc1cc2c(cc1C)-n1c(-c3ccccc3)c3c(=O)n(C)c(=O)n(C)c3c1C(c1cccc(O)c1O)N2` (centres unmarked) [PPQ-236, 2,3,7,9-Tetramethyl-11-phenyl-6-(2,3-dihydroxyphenyl)-5,6-dihydro-pyrimido[4′,5′-3,4]pyrrolo[1,2-a]quinoxaline-8,10-(7H,9H)-dione]: the inhibition at 5 µM came to 14% and the inhibition at 25 µM amounted to 80%.

For the compound `Cc1ccc(C2Nc3ccccc3-n3c(-c4ccccc4F)c4c(=O)n(C)c(=O)n(C)c4c32)cc1` (centres unmarked) [PPQ-237, 7,9-Dimethyl-11-(2-fluorophenyl)-6-(4-methylphenyl)-5,6-dihydro-pyrimido[4′,5′-3,4]pyrrolo[1,2-a]quinoxaline-8,10-(7H,9H)-dione], the inhibition at 5 µM worked out at 20% and the inhibition at 25 µM turned out to be 58%.

On to `Cc1cccc(-c2c3c(=O)n(C)c(=O)n(C)c3c3n2-c2ccccc2NC3c2ccc(F)cc2)c1` (centres unmarked) [PPQ-238, 7,9-Dimethyl-11-(3-methylphenyl)-6-(4-fluorophenyl)-5,6-dihydro-pyrimido[4′,5′-3,4]pyrrolo[1,2-a]quinoxaline-8,10-(7H,9H)-dione], for which the inhibition at 5 µM was 22% and the inhibition at 25 µM came to 57%.

Turning to `Cn1c(=O)c2c(-c3ccccc3)n3c(c2n(C)c1=O)C(c1cccc(F)c1)Nc1ccccc1-3` (centres unmarked) [PPQ-239, 7,9-Dimethyl-11-phenyl-6-(3-fluorophenyl)-5,6-dihydro-pyrimido[4′,5′-3,4]pyrrolo[1,2-a]quinoxaline-8,10-(7H,9H)-dione], the inhibition at 5 µM stood at 45% and the inhibition at 25 µM worked out at 76%.

As to `Cn1c(=O)c2c(-c3ccccc3)n3c(c2n(C)c1=O)C(c1cccc(O)c1)Nc1ccccc1-3` (centres unmarked) [PPQ-240, 7,9-Dimethyl-11-phenyl-6-(3-hydroxyphenyl)-5,6-dihydro-pyrimido[4′,5′-3,4]pyrrolo[1,2-a]quinoxaline-8,10-(7H,9H)-dione], the inhibition at 5 µM worked out at 30% and the inhibition at 25 µM worked out at 74%.

Consider `COc1cc(C2Nc3ccccc3-n3c(-c4cccc(C)c4)c4c(=O)n(C)c(=O)n(C)c4c32)ccc1O` (centres unmarked) [PPQ-241, 7,9-Dimethyl-11-(3-methylphenyl)-6-(3-methoxy-4-hydroxyphenyl)-5,6-dihydro-pyrimido[4′,5′-3,4]pyrrolo[1,2-a]quinoxaline-8,10-(7H,9H)-dione], for which the inhibition at 5 µM is 16% and the inhibition at 25 µM is 74%.

On to `Cc1ccccc1-c1c2c(=O)n(C)c(=O)n(C)c2c2n1-c1ccccc1NC2c1cccc(O)c1` (centres unmarked) [PPQ-242, 7,9-Dimethyl-11-(2-methylphenyl)-6-(3-hydroxyphenyl)-5,6-dihydro-pyrimido[4′,5′-3,4]pyrrolo[1,2-a]quinoxaline-8,10-(7H,9H)-dione], for which the inhibition at 5 µM was determined as 15% and the inhibition at 25 µM came out at 74%.

Turning to `Cc1cccc(-c2c3c(=O)n(C)c(=O)n(C)c3c3n2-c2ccccc2NC3c2ccc(O)c(O)c2)c1` (centres unmarked) [PPQ-243, 7,9-Dimethyl-11-(3-methylphenyl)-6-(3,4-dihydroxyphenyl)-5,6-dihydro-pyrimido[4′,5′-3,4]pyrrolo[1,2-a]quinoxaline-8,10-(7H,9H)-dione], the inhibition at 5 µM was found to be 12% and the inhibition at 25 µM turned out to be 72%.

In the case of `Cn1c(=O)c2c(-c3ccccc3F)n3c(c2n(C)c1=O)C(c1ccc(F)cc1F)Nc1ccccc1-3` (centres unmarked) [PPQ-244, 7,9-Dimethyl-11-(2-fluorophenyl)-6-(2,4-difluorophenyl)-5,6-dihydro-pyrimido[4′,5′-3,4]pyrrolo[1,2-a]quinoxaline-8,10-(7H,9H)-dione], the inhibition at 5 µM is 32% and the inhibition at 25 µM amounted to 56%.

`COc1cc(O)ccc1C1Nc2ccccc2-n2c(-c3cccc(C)c3)c3c(=O)n(C)c(=O)n(C)c3c21` (centres unmarked) [PPQ-245, 7,9-Dimethyl-11-(3-methylphenyl)-6-(2-methoxy-4-hydroxyphenyl)-5,6-dihydro-pyrimido[4′,5′-3,4]pyrrolo[1,2-a]quinoxaline-8,10-(7H,9H)-dione]: the inhibition at 5 µM stood at 20% and the inhibition at 25 µM stood at 55%.

On to `COc1ccc(O)c(C2Nc3ccccc3-n3c(-c4cccc(C)c4)c4c(=O)n(C)c(=O)n(C)c4c32)c1` (centres unmarked) [PPQ-246, 7,9-Dimethyl-11-(3-methylphenyl)-6-(2-hydroxy-5-methoxylphenyl)-5,6-dihydro-pyrimido[4′,5′-3,4]pyrrolo[1,2-a]quinoxaline-8,10-(7H,9H)-dione], for which the inhibition at 5 µM is less than 10% and the inhibition at 25 µM came out at 50%.

In the case of `Cc1cc2c(cc1C)-n1c(-c3ccccc3)c3c(=O)n(C)c(=O)n(C)c3c1C(c1cc(O)ccc1O)N2` (centres unmarked) [PPQ-247, 2,3,7,9-Tetramethyl-11-phenyl-6-(2,5-dihydroxyphenyl)-5,6-dihydro-pyrimido[4′,5′-3,4]pyrrolo[1,2-a]quinoxaline-8,10-(7H,9H)-dione], the inhibition at 5 µM turned out to be 13% and the inhibition at 25 µM was found to be 58%.

As for `COc1cc(C2Nc3ccccc3-n3c(-c4ccccc4)c4c(=O)n(C)c(=O)n(C)c4c32)ccc1O` (centres unmarked) [PPQ-248, 7,9-Dimethyl-11-phenyl-6-(3-methoxy-4-hydroxyphenyl)-5,6-dihydro-pyrimido[4′,5′-3,4]pyrrolo[1,2-a]quinoxaline-8,10-(7H,9H)-dione], the inhibition at 5 µM came to 5% and the inhibition at 25 µM was determined as 64%.

Consider `Cn1c(=O)c2c(-c3ccccc3)n3c(c2n(C)c1=O)C(c1ccc(F)cc1)Nc1ccccc1-3` (centres unmarked) [PPQ-249, 7,9-Dimethyl-11-phenyl-6-(4-fluorophenyl)-5,6-dihydro-pyrimido[4′,5′-3,4]pyrrolo[1,2-a]quinoxaline-8,10-(7H,9H)-dione], for which the inhibition at 5 µM amounted to 21% and the inhibition at 25 µM was 64%.

Regarding `Cc1cccc(-c2c3c(=O)n(C)c(=O)n(C)c3c3n2-c2ccccc2NC3c2ccccc2)c1` (centres unmarked) [PPQ-250, 7,9-Dimethyl-11-(3-methylphenyl)-6-phenyl-5,6-dihydro-pyrimido[4′,5′-3,4]pyrrolo[1,2-a]quinoxaline-8,10-(7H,9H)-dione], the inhibition at 5 µM came out at 49% and the inhibition at 25 µM came to 64%.

Turning to `COc1cc(C2Nc3ccccc3-n3c(-c4ccccc4F)c4c(=O)n(C)c(=O)n(C)c4c32)ccc1O` (centres unmarked) [PPQ-251, 7,9-Dimethyl-11-(2-fluorophenyl)-6-(3-methoxy-4-hydroxyphenyl)-5,6-dihydro-pyrimido[4′,5′-3,4]pyrrolo[1,2-a]quinoxaline-8,10-(7H,9H )-dione], the inhibition at 5 µM worked out at 13% and the inhibition at 25 µM was 62%.

(Values after patent US8609661B2, “Pyrimido-pyrrolo-quinoxalinedione inhibitors of cystic fibrosis transmembrane conductance regulator protein and uses therefor” (The Regents of the University of California, priority 2009, dated 2013).)
